Common to all, as to format: functional
The subject of one experiment is COLO 205. In words: Cytotoxicity against Homo sapiens (human) COLO205 cells after 48 hr by SRB assay. The note with it: COLO 205, 48 h. A general note: In SRB staining, fixed cells bind dye roughly in proportion to their protein.
The subject of a further experiment is SF-268. Nature of the experiment: Cytotoxicity against Homo sapiens (human) SF268 cells after 48 hr by SRB assay. The note with it: SF-268, 48 h.
A further experiment deals with HL-60(TB). In words: Cytotoxicity against Homo sapiens (human) HL-60(TB) cells after 48 hr by SRB assay. The note with it: HL-60, 48 h.
The test system of another experiment is SK-MEL-5. Nature of the experiment: Cytotoxicity against Homo sapiens (human) SK-MEL-5 cells after 48 hr by SRB assay. Particulars: SK-MEL-5, 48 h.
A further experiment concerns CAKI-1. Nature of the experiment: Cytotoxicity against Homo sapiens (human) CAKI-1 cells after 48 hr by SRB assay. Particulars: CAKI-1, 48 h.
The test system of another experiment is IGROV-1. In words: Cytotoxicity against Homo sapiens (human) IGROV1 cells after 48 hr by SRB assay. Particulars: IGROV-1, 48 h.
In the next experiment the test system is PC-3. Nature of the experiment: Cytotoxicity against Homo sapiens (human) PC3 cells after 48 hr by SRB assay. The note with it: PC-3, 48 h.
Another experiment has as its system NCI/ADR-RES. In words: Cytotoxicity against Homo sapiens (human) NCI/ADR-RES cells after 48 hr by SRB assay.
The subject of a further experiment is HOP-92. Nature of the experiment: Cytotoxicity against Homo sapiens (human) HOP92 cells after 48 hr by SRB assay. The note with it: HOP-92, 48 h.

SMILES strings stand for the structures.

A word on the GI50: it is the concentration at which growth is held to half of that of the control. A high value points to less potent growth inhibition. Turning to `CC1=C(C(=O)Nc2ccc(Cl)c(Cl)c2)C(c2ccccc2O)NC(=O)N1` (stereo not drawn), the GI50 with COLO 205 is 28.2 µM; with SF-268, 28.2 µM; in the experiment on HL-60(TB), 50.1 µM; in the experiment on SK-MEL-5, 12.6 µM; in the experiment with CAKI-1, 39.8 µM; in the experiment with IGROV-1, 25.1 µM. Further, the GI50 with PC-3 was 33.9 µM; in the experiment with NCI/ADR-RES, 17.8 µM; in the experiment with HOP-92 it was 50.1 µM.

As to `CC1=C(C(=O)Nc2ccc(Cl)c(Cl)c2)C(c2cccc(Cl)c2)NC(=O)N1` (stereo not drawn), the GI50 with COLO 205 was 7.94 µM; in the experiment on SF-268, 11.2 µM; in the experiment on HL-60(TB), 13.5 µM; with SK-MEL-5, 9.55 µM; with CAKI-1, 12.6 µM; in the experiment with IGROV-1, 10.5 µM. Also, the results for the GI50 in the experiment on PC-3, in the experiment on NCI/ADR-RES and with HOP-92 were 50.1 µM, 16.6 µM and 45.7 µM, respectively.

For the molecule `COc1cccc(C2NC(=S)NC(C)=C2C(=O)Nc2ccc(F)c(Cl)c2)c1` (stereo not drawn), the GI50 is 26.9 µM with COLO 205; 18.2 µM with SF-268; 17.4 µM in the experiment on HL-60(TB); 13.2 µM with SK-MEL-5; 49 µM in the experiment on CAKI-1; 27.5 µM with IGROV-1. Besides, the 50% growth inhibitory concentration (GI50) was 23.4 µM in the experiment on PC-3, 15.5 µM with NCI/ADR-RES and 50.1 µM in the experiment with HOP-92.

Take `CC1=C(C(=O)Nc2ccc(F)c(Cl)c2)C(c2cccc(Cl)c2)NC(=S)N1` (stereo not drawn): the 50% growth inhibitory concentration (GI50) is 4.17 µM in the experiment on COLO 205; 10 µM with SF-268; 16.2 µM with HL-60(TB); 8.32 µM in the experiment with SK-MEL-5; 39.8 µM in the experiment with CAKI-1; 14.1 µM with IGROV-1. Further, the results for the concentration for 50% growth inhibition (GI50) in the experiment with PC-3, in the experiment with NCI/ADR-RES and with HOP-92 were 25.1 µM, 15.8 µM and 32.4 µM, respectively.

In the case of `CC1=C(C(=O)Nc2ccc(F)c(Cl)c2)C(c2cccc(Oc3ccccc3)c2)NC(=S)N1` (stereo not drawn), the GI50 was 17.8 µM with COLO 205; 8.91 µM in the experiment with SF-268; 17.4 µM in the experiment on HL-60(TB); 8.91 µM in the experiment on SK-MEL-5; 12.6 µM in the experiment with CAKI-1; 10.7 µM in the experiment with IGROV-1. The GI50 in the experiment on PC-3 was 12 µM; in the experiment with NCI/ADR-RES, 15.5 µM; in the experiment with HOP-92, 20.9 µM.

Consider `CC1=C(C(=O)Nc2ccc(F)c(Cl)c2)C(c2ccccc2Cl)NC(=S)N1` (stereo not drawn), for which the GI50 with COLO 205 is 24 µM; in the experiment on SF-268, 14.8 µM; in the experiment on HL-60(TB), 25.7 µM; with SK-MEL-5 it was 12.3 µM; in the experiment with CAKI-1 it was 31.6 µM; in the experiment on IGROV-1, 17.8 µM. Further, the concentration for 50% growth inhibition (GI50) is 20.4 µM with PC-3, 16.6 µM with NCI/ADR-RES and 50.1 µM in the experiment with HOP-92.

With `CC1=C(C(=O)Nc2ccc(F)c(Cl)c2)C(c2cccc(Oc3ccccc3)c2)NC(=O)N1` (stereo not drawn), the 50% growth inhibitory concentration (GI50) in the experiment with COLO 205 was 6.31 µM; in the experiment with SF-268, 8.51 µM; in the experiment on HL-60(TB) it was 13.8 µM; in the experiment with SK-MEL-5 it was 7.59 µM; in the experiment with CAKI-1, 10 µM; with IGROV-1, 7.94 µM. Also, the GI50 in the experiment on PC-3 was 22.4 µM; in the experiment on NCI/ADR-RES, 16.2 µM; with HOP-92, 40.7 µM.

On to `COc1cccc(C2NC(=S)NC(C)=C2C(=O)Nc2ccc(Cl)c(Cl)c2)c1` (stereo not drawn), for which the concentration for 50% growth inhibition (GI50) in the experiment with COLO 205 is 9.33 µM; with SF-268, 12.6 µM; in the experiment with HL-60(TB), 49 µM; in the experiment on SK-MEL-5 it was 9.55 µM; in the experiment with CAKI-1, 17.8 µM; in the experiment on IGROV-1, 15.8 µM. The concentration for 50% growth inhibition (GI50) was 14.5 µM in the experiment with PC-3, 16.6 µM in the experiment with NCI/ADR-RES and 12.6 µM in the experiment with HOP-92.

`CC1=C(C(=O)Nc2ccc(F)c(Cl)c2)C(c2cccc(O)c2)NC(=S)N1` (stereo not drawn): the GI50 was 22.4 µM with COLO 205; 17.8 µM in the experiment on SF-268; 25.7 µM with HL-60(TB); 11.2 µM with SK-MEL-5; 50.1 µM with CAKI-1; 22.9 µM with IGROV-1. Also, the 50% growth inhibitory concentration (GI50) is 25.1 µM in the experiment on PC-3, 17 µM with NCI/ADR-RES and 50.1 µM in the experiment on HOP-92.

As for `CC1=C(C(=O)Nc2ccc(Cl)c(Cl)c2)C(c2cccc(O)c2)NC(=S)N1` (stereo not drawn), the GI50 was 7.08 µM in the experiment on COLO 205; 15.8 µM in the experiment on SF-268; 11.2 µM in the experiment with HL-60(TB); 10 µM in the experiment on SK-MEL-5; 22.4 µM in the experiment with CAKI-1; 19.1 µM in the experiment with IGROV-1. The GI50 was 14.1 µM with PC-3, 15.8 µM with NCI/ADR-RES and 13.5 µM with HOP-92.

Turning to `CC1=C(C(=O)Nc2ccc(Cl)c(Cl)c2)C(c2ccccc2Cl)NC(=S)N1` (stereo not drawn), the concentration for 50% growth inhibition (GI50) was 7.94 µM with COLO 205; 8.91 µM in the experiment on SF-268; 15.5 µM with HL-60(TB); 10 µM in the experiment with SK-MEL-5; 17.8 µM with CAKI-1; 15.8 µM in the experiment on IGROV-1. Besides, the GI50 was 20 µM in the experiment on PC-3, 15.8 µM in the experiment with NCI/ADR-RES and 1.2 µM in the experiment with HOP-92.

Turning to `CC1=C(C(=O)Nc2ccc(Cl)c(Cl)c2)C(c2cccc(Oc3ccccc3)c2)NC(=S)N1` (stereo not drawn), the 50% growth inhibitory concentration (GI50) in the experiment on COLO 205 is 9.33 µM; with SF-268, 6.17 µM; in the experiment with HL-60(TB) it was 83.2 µM; in the experiment with SK-MEL-5 it was 7.94 µM; in the experiment with CAKI-1, 8.51 µM; in the experiment with IGROV-1 it was 7.76 µM. Besides, the GI50 is 9.77 µM with PC-3, 15.5 µM in the experiment with NCI/ADR-RES and 13.2 µM in the experiment with HOP-92.
